The text below walks through data of US20130345164A1, “TREATMENTS FOR CELLULAR PROLIFERATIVE DISORDERS AND IDENTIFICATION THEREOF” (UNIVERSITY OF MEDICINE AND DENTISTRY OF NEW JERSEY, priority 2010, published 2013).

In experiment [1] the test system is 10(3) cells with human mutant p53 construct 248. Briefly: Growth inhibition assay on isogenic murine fibroblast lines (96-well MTS). The format is cell-based. The note with it: cells with mutation p53^248. As for the experimental part: (§1) None of these compounds have been previously reported for their selective activity in cells with a mutant p53. To provide further evidence for their specificity, growth inhibition assays were performed on isogenic cell lines. Previously developed murine fibroblast cell line (10)3 (p53 null) and 10(3) with transfection of cytomegalovirus-human mutant p53 constructs (273, 248 and 175) (Dittmer, D., et al., Nature Genetics, 1993. 4(1): p. 42-6) were used as cases, while the murine fibroblast cell line 3T3 was used as a p53 wild type control.
(§2) The compounds were validated using several different cell line systems. The first system used was a mouse embryonic fibroblast (MEF) system in which a p53 null MEF line, 10(3), was used as a parental line from which several stable CMV-mutant p53 transfectants were derived. The p53 mutations investigated were the “hot spot” mutants 175, 248, and 273. NIH3T3 fibroblasts were used as a p53 wild type control.

For experiment [2], the system named is murine fibroblast cell line 3T3 (p53 wild type control). The experiment is described as above. The note with it: FIG. 5c. It counts as cell-based. As to the method: as §1, §2
Experiment [3] has as its system 10(3) cells with human mutant p53 construct 175. Described as above. It counts as cell-based. As for the experimental part: as §1, §2
For experiment [4], the system named is murine fibroblast cell line (10)3 (p53 null). The experiment is described as above. It counts as cell-based. The note with it: p53^null cells. As for the experimental part:
as §1, §2

For experiment [5], the system named is 10(3) cells with human mutant p53 construct 273. The description is as above. The format is cell-based. The note with it: cells with mutation p53^273. As for the experimental part:
as §1, §2

Experiment [6] has as its system p53^R172H/R172H mice tissues. Briefly: Cleaved Caspase-3 immuno-staining and quantitative-PCR of p53 targets in mouse tissues. It counts as in vivo.
Experiment [7] relates to cells carrying p53 mutations. Briefly: NCI60 screen Score ranking, p53 mutant case group vs p53 wild-type control group. The note with it: p53 273/248 mutant case group vs p53 wild-type control group; NCI60 data. As to the method:
The Score calculations are carried out by: • (1) calculating a Responsive Fraction, i.e., the fraction of the case cell lines in the Case Group that are responsive to the test treatment; • (2) calculating a Non-Responsive Fraction i.e., the fraction of the control cell lines in the Control Group that are not responsive to the test treatment; and • (3) generating a Score of the test treatment according to Formula I:
Score=the Responsive Fraction×the Non-Responsive Fraction.
Among the NCI60 cell lines, 16 have wild-type p53 and 44 carry a p53 alteration (Ikediobi, O. N., et al., Mol Cancer Ther, 2006. 5(11): p. 2606-12). Mutations at amino acids 273 and 248 are the most frequent, with 5 and 4 cell lines, respectively. Given the abundance of p53 mutations at positions 273 and 248 within the NCI60 cell lines, and their location in the p53-DNA contact, cells carrying these mutations were chosen to form a case group to identify compounds with increased activity in tumors with a mutant p53. On the other hand, cells with a wild-type p53 were chosen to form a control group. The resulting groups are the following:
• Leukemia: CCRF-CEM; • Lung Cancer: NCI-H322M; • Central Nervous System Cancer: SF-295, SF-268, SNB-19, and U251; • Colorectal Cancer: HT29 and SW-620; • Ovarian Cancer: OVCAR-3.
• Breast Cancer: MCF7; • Colorectal Cancer: HCT-116; • Lung Cancer: A549, NCI-H226, and NCI-H460; • Leukemia: SR; • Melanoma: LOXIMVI, MALME-3M, SK-MEL-5, UACC-257, and UACC-62; • Ovarian Cancer: OVCAR-5; • Renal Cancer: A498, ACHN, CAKI-1, and UO-31.
Using the protocols described above, the NCI60 treatment-cell line RG was constructed, taking RS=log10IC50-average(log10IC50) as a relative response sensitivity measurement and computing the average(log10IC50) over all the 60 cell lines. The Case and Control groups listed above were chosen, and the score in Formula I was computed for the 47,624 compounds in the NCI60 screen.

A further experiment has as its system MEF-p53^R172H cells. The experiment is described as follows: Viability assay in 12-well cultures (Guava PCA) in MEF lines of the same strain. It counts as cell-based, mouse. The note with it: MEF-p53^R172H vs MEF-p53 wild type and MEF-p53 null. As to the method:
The sensitivity was measured in 12-well cultures for viability assay using the Guava PCA instrument following the manufacture protocol.

Another experiment deals with T1, p53^R175H mutant protein (Homo sapiens, UniProt P04637, R175H).
T1 construct: one ovarian carcinoma cell line containing a p53^R175H (TOV112D); endogenous in cells; host or cells: TOV112D human ovarian carcinoma cells
The experiment is described as follows: Immuno-fluorescent staining with conformation-specific antibodies (PAB1620, PAB240, PAB1801) in TOV112D. It counts as cell-based. The source says:
Conformational change to wild type in TOV112D (p53R175H) was studied by immuno-fluorescent staining.

The next experiment deals with panel of p53 targets. The experiment is described as follows: Microarray analysis of p53 target genes in TOV112D cells. It counts as cell-based, human. The note with it: TOV112D vs untreated controls. An excerpt: Each treatment had three independent repeats (labeled as 1, 2, and 3); (e) Comparison of the p53 expression signatures of 319726 treated cells with that of p53 wild type, p53 null and p53R175H cell lines in response to gamma-irradiation.
To examine the transcriptional activity of the NSC319725 and […]-treated cells on a larger scale, microarrays were used to analyze control- and compound-treated TOV112D cells.

The subject of a further experiment is p21 protein. The experiment is described as follows: Western Blot of p21 protein levels. The note with it: TOV112D (p53R175H). It counts as cell-based, human. (In general: In western blotting, separated proteins are transferred to a membrane and probed.)
The next experiment concerns TOV112D cells. The experiment is described as follows: Growth inhibition after silencing of p53 by siRNA. It counts as cell-based, human. The note with it: p53^R175H silenced by siRNA. The source says:
(§3) In contrast, the sensitivity of the p53 null cell line (SKOV3) was not reduced by the siRNA in a similar fashion.

Experiment [8] relates to p53 null cell line (SKOV3). The experiment is described as follows: Growth inhibition after silencing of p53 by siRNA. It counts as cell-based, human.
Source text: as §3

The next experiment addresses T2, p53 R175H (Homo sapiens, UniProt P04637, R175H).
T2 construct: one ovarian carcinoma cell line containing a p53^R175H (TOV112D); endogenous in cells; host or cells: TOV112D human ovarian carcinoma cells
Briefly: Immunoprecipitation of TOV112D lysates with mutant specific antibody PAB240. The format is cell-based. The note with it: detection with DO-1. The source says:
This conformational change was confirmed by immunoprecipitation of lysates from NSC319726-treated TOV112D cells using the mutant specific antibody PAB240. To that end, cell lysates were precipitated with PAB240 and detected with p53 (DO-1) antibody which recognizes all types of p53 protein conformations.

In experiment [9] the test system is TOV112D-p53R175H, OVCAR3-p53 R248W and SKOV3-p53 null. The experiment is described as follows: Apoptosis by Annexin V staining in ovarian carcinoma cell lines. The format is cell-based, human. The note with it: three ovarian carcinoma cell lines. The source says:
Briefly, apoptosis was examined by Annexin V staining using standard methods.

For `C/C(=N\NC(=S)N1CCC1)c1ccccn1` [NSC319726], the IC50 in [1] is about 100 nM; in [2] it was “not even reached”; in experiment [3] (175 mutant, FIG. 5c), 8 nM; in [3] (cells carrying the p53^173 mutation (so in the source)) it was about 10 nM; in [4], about 100 nM; in experiment [5] it was about 100 nM. The “cleaved Caspase-3 immuno-stained cells in spleen and thymus” value in experiment [6] (p53^R172H/R172H mice vs wild type controls, 24 hours treatment) is reported as “abundantly more cleaved Caspase-3 immuno-stained cells”. Further, the “mRNA levels of p53 targets in tissues” value in experiment [6] (p53^R172H/R172H mice vs wild type, lung, spleen, thymus, small intestine, 24 hours) was “Elevated mRNA levels”. Besides, the “Score (Formula I)” value in [7] turned out to be 0.52. In addition, in the experiment with MEF-p53^R172H cells, the “sensitivity compared to p53 wild type and p53 null controls” value is “much higher sensitivity”. On p53^R175H mutant protein, the “conformational change of p53^R175H (recognised by PAB1620, no longer by PAB240)” value is “induced a change in conformation”. Besides, the “transcriptional levels of panel of p53 targets (microarray)” value in the experiment with panel of p53 targets is on record as “induced a large proportion of these genes”. In addition, the “p21 induction (Western blot)” value with p21 protein is reported as “induced p21”. In addition, the “change of sensitivity on p53 siRNA” value is “reduced by four-fold” in the experiment on TOV112D cells and “not reduced” in [8]. Besides, on p53 R175H, the “amount of p53 R175H immunoprecipitated by mutant specific antibody PAB240” value was “greatly reduced”. Moreover, the “induction of apoptosis (Annexin V staining)” value in experiment [9] is recorded as “induction of apoptosis in all three”.

As a reminder, the IC50 is the point on the concentration scale where inhibition reaches its midpoint. Read a low IC50 as inhibition by little substance.
